Experimental data as given in patent publication US12624003B2, “Carboxylic acid containing indanyl compounds for the treatment of neurodegenerative diseases” (Celgene Corporation, priority 2020, dated 2026).

Target: T1, S1P5 (Homo sapiens, UniProt Q9H228)
T1 construct: expressed in transfected cells; host or cells: CHO cells (membranes)
Assay: [35S]-GTPγS functional binding assay on CHO-S1P5 membranes
Format: biochemical
Details: membranes of CHO cells expressing recombinant S1P5 receptors; measure of S1P5 agonism
Description: CHO cells expressing recombinant S1P5 receptors were cultured in 500 cm^2 culture trays and, once confluent, rinsed and detached with cell-lifting buffer (10 mM HEPES, 154 mM NaCl, 6.85 mM EDTA, pH 7.4). Cells were then pelleted by centrifugation, resuspended, and homogenized in membrane preparation buffer (10 mM HEPES and 10 mM EDTA, pH 7.4) using a Polytron PT 1200E homogenizer (Kinematica, Luzern, Switzerland). Cellular proteins were pelleted by centrifugation at 48,000×g at 4° C. for 30 minutes. The resulting supernatant was discarded, and the pellet was re-suspended again in membrane preparation buffer, homogenized for a second time, and then centrifuged again as described above. The final cellular protein pellet was suspended in ice cold resuspension buffer (10 mM HEPES and 0.1 mM EDTA, pH 7.4), divided into aliquots, and stored at −80° C. until use.
Functional binding assays for [^35S]-GTPγS were performed in 96-well non-binding surface plates with a final volume of 200 μL. The test compounds were serially diluted in DMSO and added to assay plates using a Tecan D300E digital printer with a total volume of 0.4 μL. The control sphingosine-1-phosphate (S1P) was prepared separately by preparing a 400 μM stock solution from a 100 nmol pellet of SIP in 10 mM Na2CO3 with 2% s-cyclodextrin. The serial dilution of S1P was done using complete assay buffer (20 mM HEPES, 10 mM MgCl2, 100 mM NaCl, 1 mM EDTA, 0.1% fatty acid free bovine serum albumin (BSA), and 30 μg/mL saponin, pH 7.4) and transferred to wells already containing 0.4 μL DMSO. All the wells were then loaded to a total volume of 40 μL of complete assay buffer, except the non-specific binding (NSB) wells. For NSB wells, 40 μL/well of 50 μM GTPγS (Sigma Aldrich, cat #G8634, St. Louis, MO) was added to wells containing 0.4 μL of DMSO. The assay was started by the addition of 120 μL/well of CHO-S1P receptor membrane solution containing 40 μg/mL of membrane protein, 16.67 μM guanosine diphosphate (GDP; Sigma Aldrich, cat #G7127, St. Louis, MO), and 2.5 mg/mL of WGA PVT SPA beads in complete buffer. Assay plates were then sealed and incubated at room temperature with gentle agitation for 30 minutes. Next, 40 μL/well of 1 nM of [^35S]-GTPγS (PerkinElmer, cat #NEG030X250UC, Waltham, MA) in basic assay buffer (20 mM HEPES, 10 mM MgCl2, 100 mM NaCl, and 1 mM EDTA, pH 7.4) was added to the assay plates to yield a final concentration of […] and the plates were further incubated for 40 minutes at room temperature with gentle agitation. The assay was terminated by centrifugation of the plates at 1000 rpm for 3 minutes using an Eppendorf 5810R centrifuge (Eppendorf, Hamburg, Germany) and G protein bound radioactivity was quantitated using a MicroBeta2 microplate scintillation counter (PerkinElmer, Waltham, MA). As G protein bound radioactivity directly correlates to receptor activation and coupling to the G protein, this assay is a measure of S1P5 agonism.

T1 sequence (Q9H228 whole entry, species assumed): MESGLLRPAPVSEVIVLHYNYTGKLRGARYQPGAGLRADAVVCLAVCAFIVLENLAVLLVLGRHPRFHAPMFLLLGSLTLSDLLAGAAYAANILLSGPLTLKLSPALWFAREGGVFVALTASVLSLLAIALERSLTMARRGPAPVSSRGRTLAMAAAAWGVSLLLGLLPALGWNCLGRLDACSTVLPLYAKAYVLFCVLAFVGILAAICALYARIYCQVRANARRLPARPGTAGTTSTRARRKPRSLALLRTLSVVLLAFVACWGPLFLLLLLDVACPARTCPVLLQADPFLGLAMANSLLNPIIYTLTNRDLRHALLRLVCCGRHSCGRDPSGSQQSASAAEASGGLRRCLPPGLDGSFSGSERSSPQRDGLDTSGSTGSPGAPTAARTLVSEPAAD

Question: How did the EC50 turn out when `O=C(O)C1CCN(C2CCc3cc(CCc4ccccc4Cl)ccc32)CC1` (single isomer, unassigned) [Compound 25a, 1-(5-(2-chlorophenethyl)-2,3-dihydro-1H-inden-1-yl)piperidine-4-carboxylic acid] was run?
Answer: 10 to 100 nM

Question: `O=C(O)C1CCN(C2CCc3cc(C#Cc4cccc(F)c4)ccc32)CC1` (single isomer, unassigned) [Compound 4a, 1-(5-((3-fluorophenyl)ethynyl)-2,3-dihydro-1H-inden-1-yl)piperidine-4-carboxylic acid] was tested. Which EC50 did it give?
Answer: 100 to 1000 nM

Question: With `O=C(O)C1CCN(C2CCc3cc(C#Cc4ccccc4F)ccc32)CC1` (single isomer, unassigned) [Compound 6b, 1-(5-((2-fluorophenyl)ethynyl)-2,3-dihydro-1H-inden-1-yl)piperidine-4-carboxylic acid] as the compound, how does the EC50 read?
Answer: ≤ 10 nM

Question: Which EC50 does the source give for `O=C(O)C1CCN(C2CCc3cc(CCc4ccccc4Cl)ccc32)CC1` (single isomer, unassigned) [Compound 25b, 1-(5-(2-chlorophenethyl)-2,3-dihydro-1H-inden-1-yl)piperidine-4-carboxylic acid] here?
Answer: 100 to 1000 nM

Question: `O=C(O)[C@@H]1CCN(C2CCc3cc(-c4ccc(C5CC5)c(Cl)c4)ccc32)C1` (single isomer, unassigned) [Compound 34a] was tested. Which EC50 did it give?
Answer: ≤ 10 nM

Question: How did the EC50 turn out when `O=C(O)C1CCN(C2CCc3cc(CCc4cccc(F)c4)ccc32)CC1` (single isomer, unassigned) [Compound 26b, 1-(5-(3-fluorophenethyl)-2,3-dihydro-1H-inden-1-yl)piperidine-4-carboxylic acid] was run?
Answer: 10 to 100 nM

Question: How did the EC50 turn out when `O=C(O)[C@H]1CCN(C2CCc3cc(C#Cc4cccc(F)c4)ccc32)C1` (single isomer, unassigned) [Compound 13b] was run?
Answer: 10 to 100 nM

Question: Which EC50 does the source give for `O=C(O)C1CN(C2CCc3cc(-c4ccc(C5CC5)c(F)c4)ccc32)C1` (single isomer, unassigned) [Compound 31b, 1-(5-(4-cyclopropyl-3-fluorophenyl)-2,3-dihydro-1H-inden-1-yl)azetidine-3-carboxylic acid] here?
Answer: ≤ 10 nM

Question: Which EC50 does the source give for `O=C(O)[C@H]1[C@@H]2CN(C3CCc4cc(C#Cc5cccc(F)c5)ccc43)C[C@@H]21` (stereo partly drawn) [Compound 16, (1R,5S,6r)-3-(5-((3-fluorophenyl)ethynyl)-2,3-dihydro-1H-inden-1-yl)-3-azabicyclo[3.1.0]-hexane-6-carboxylic acid] here?
Answer: 100 to 1000 nM

Question: Which EC50 does the source give for `O=C(O)C1CN(C2CCc3cc(-c4ccc(C5CC5)c(F)c4)ccc32)C1` (single isomer, unassigned) [Compound 31a, 1-(5-(4-cyclopropyl-3-fluorophenyl)-2,3-dihydro-1H-inden-1-yl)azetidine-3-carboxylic acid] here?
Answer: ≤ 10 nM

Question: With `O=C(O)[C@H]1CCN(C2CCc3cc(-c4ccc(C5CC5)c(Cl)c4)ccc32)C1` (single isomer, unassigned) [Compound 35b] as the compound, how does the EC50 read?
Answer: 10 to 100 nM

Question: Which EC50 does the source give for `O=C(O)C1(F)CCN(C2CCc3cc(C#Cc4c(Cl)cccc4Cl)ccc32)CC1` (single isomer, unassigned) [Compound 3a, 1-(5-((2,6-dichlorophenyl)ethynyl)-2,3-dihydro-1H-inden-1-yl)-4-fluoropiperidine-4-carboxylic acid] here?
Answer: ≤ 10 nM

Question: `O=C(O)C1CC2(C1)CN(C1CCc3cc(CCc4c(Cl)cccc4Cl)ccc31)C2` (stereo not shown) [Compound 29, 2-(5-(2,6-dichlorophenethyl)-2,3-dihydro-1H-inden-1-yl)-2-azaspiro[3.3]heptane-6-carboxylic acid] was tested. Which EC50 did it give?
Answer: 10 to 100 nM

Question: With `O=C(Cc1c(Cl)cccc1Cl)c1ccc2c(c1)CCC2N1CCC(C(=O)O)CC1` (single isomer, unassigned) [Compound 23, 1-(5-(2-(2,6-dichlorophenyl)acetyl)-2,3-dihydro-1H-inden-1-yl)piperidine-4-carboxylic acid] as the compound, how does the EC50 read?
Answer: 10 to 100 nM

Question: How did the EC50 turn out when `O=C(O)[C@@H]1CCCCN1C1CCc2cc(C#Cc3cccc(F)c3)ccc21` (single isomer, unassigned) [Compound 8b] was run?
Answer: 1000 to 10000 nM

Question: Which EC50 does the source give for `O=C(O)C1CCN(C2CCc3cc(C#Cc4cccc(F)c4)ccc32)CC1` (single isomer, unassigned) [Compound 4b, 1-(5-((3-fluorophenyl)ethynyl)-2,3-dihydro-1H-inden-1-yl)piperidine-4-carboxylic acid] here?
Answer: ≤ 10 nM

Question: Which EC50 does the source give for `O=C(O)C1CCCN(C2CCc3cc(-c4ccc(C5CC5)c(Cl)c4)ccc32)C1` (stereo not shown) [Compound 38, 1-(5-(3-chloro-4-cyclopropylphenyl)-2,3-dihydro-1H-inden-1-yl)piperidine-3-carboxylic acid] here?
Answer: 10 to 100 nM

Question: With `O=C(O)C1CCN(C2CCc3cc(CCc4cccc(Cl)c4)ccc32)CC1` (single isomer, unassigned) [Compound 27a, 1-(5-(3-chlorophenethyl)-2,3-dihydro-1H-inden-1-yl)piperidine-4-carboxylic acid] as the compound, how does the EC50 read?
Answer: ≤ 10 nM

Question: With `O=C(O)C1CN(C2CCc3cc(C#Cc4c(Cl)cccc4Cl)ccc32)C1` (single isomer, unassigned) [Compound 18, 1-(5-((2,6-dichlorophenyl)ethynyl)-2,3-dihydro-1H-inden-1-yl)azetidine-3-carboxylic acid] as the compound, how does the EC50 read?
Answer: ≤ 10 nM

Question: For `O=C(O)C1CCN(C2CCc3cc(C#Cc4cccc(F)c4)ccc32)CC12CC2` (stereo not shown) [Compound 12, 5-(5-((3-fluorophenyl)ethynyl)-2,3-dihydro-1H-inden-1-yl)-5-azaspiro[2.5]octane-8-carboxylic acid], which EC50 is on record?
Answer: 10 to 100 nM

Question: With `O=C(O)[C@@H]1CCN(C2CCc3cc(C#Cc4cccc(F)c4)ccc32)C1` (single isomer, unassigned) [Compound 14a] as the compound, how does the EC50 read?
Answer: ≤ 10 nM

Question: `O=C(O)[C@H]1CCN(C2CCc3cc(-c4ccc(C5CC5)c(Cl)c4)ccc32)C1` (single isomer, unassigned) [Compound 35a] was tested. Which EC50 did it give?
Answer: 10 to 100 nM

Question: How did the EC50 turn out when `O=C(O)[C@H]1CCN(C2CCc3cc(-c4ccc(C5CC5)c(F)c4)ccc32)C1` (single isomer, unassigned) [Compound 37b] was run?
Answer: 10 to 100 nM

Question: `O=C(O)C1CCN(C2CCc3cc(-c4ccc(C5CC5)c(Cl)c4)ccc32)CC1` (single isomer, unassigned) [Compound 32a, 1-(5-(3-chloro-4-cyclopropylphenyl)-2,3-dihydro-1H-inden-1-yl)piperidine-4-carboxylic acid] was tested. Which EC50 did it give?
Answer: 100 to 1000 nM

Question: For `O=C(O)C1CN(C2CCc3cc(-c4ccc(C5CC5)c(Cl)c4)ccc32)C1` (single isomer, unassigned) [Compound 30b, 1-(5-(3-chloro-4-cyclopropylphenyl)-2,3-dihydro-1H-inden-1-yl)azetidine-3-carboxylic acid], which EC50 is on record?
Answer: ≤ 10 nM

Question: Which EC50 does the source give for `O=C(O)C1CCN(C2CCc3cc(-c4ccc(C5CC5)c(Cl)c4)ccc32)CC1` (single isomer, unassigned) [Compound 32b, 1-(5-(3-chloro-4-cyclopropylphenyl)-2,3-dihydro-1H-inden-1-yl)piperidine-4-carboxylic acid] here?
Answer: ≤ 10 nM

Question: Which EC50 does the source give for `O=C(O)[C@H]1CCN(C2CCc3cc(C#Cc4cccc(F)c4)ccc32)C1` (single isomer, unassigned) [Compound 13a] here?
Answer: 10 to 100 nM

Question: With `O=C(O)C1CCN(C2CCc3cc(-c4ccc5c(c4)CCC5)ccc32)CC1` (single isomer, unassigned) [Compound 44, 1-(2,2′,3,3′-tetrahydro-1H,1′H-[5,5′-biinden]-1-yl)piperidine-4-carboxylic acid] as the compound, how does the EC50 read?
Answer: 10 to 100 nM

Question: With `O=C(O)C1CCN(C2CCc3cc(CCc4c(F)cccc4F)ccc32)CC1` (single isomer, unassigned) [Compound 28a, 1-(5-(2,6-difluorophenethyl)-2,3-dihydro-1H-inden-1-yl)piperidine-4-carboxylic acid] as the compound, how does the EC50 read?
Answer: 100 to 1000 nM

Question: With `O=C(O)C1CCN(C2CCc3cc(CCc4c(F)cccc4F)ccc32)CC1` (single isomer, unassigned) [Compound 28b, 1-(5-(2,6-difluorophenethyl)-2,3-dihydro-1H-inden-1-yl)piperidine-4-carboxylic acid] as the compound, how does the EC50 read?
Answer: 10 to 100 nM

Question: For `O=C(O)C1=CCN(C2CCc3cc(C#Cc4c(Cl)cccc4Cl)ccc32)CC1` (stereo not shown) [Compound 2, 1-(5-((2,6-dichlorophenyl)ethynyl)-2,3-dihydro-1H-inden-1-yl)-1,2,3,6-tetrahydropyridine-4-carboxylic acid], which EC50 is on record?
Answer: ≤ 10 nM
